Results reported in patent publication US20240376085A1 (Janssen Pharmaceutica NV, priority 2021, published 2024).

Columns and labels:
[1] = system: IL-17A-induced G-CSF production in human normal keratinocyte (NHK); test: NHK assay: IL-17A-induced G-CSF production in normal human keratinocytes; assay type: cell-based; conditions: 24 h, IL-17A 5 ng/mL, average if tested more than once
In short: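 IC50 derives from G-CSF in supernatants, quantified by HTRF from a standard curve, with CellTiter-Glo viability compared to DMSO control. Before a 24 h, 37°C culture of normal human keratinocytes at 3000–4000 cells/well, compound dilutions were preincubated 1 h at rt with human IL-17A (5 ng/mL final), with 0.2% DMSO and 5% FBS.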

IL-17A : IL-17RA binding = target: T1, IL-17A : IL-17RA binding (Homo sapiens, UniProt Q16552, K93Q); test: IL-17A(FLAG-tagged):IL-17RA(His-tagged) binding disruption Eu-HTRF assay, Protocol 1; conditions: FLAG-IL-17A 2.5 nM at 2x final concentration; average if tested more than once
T1 construct: Name: IL-17A-Flag
T1 sequence (Q16552 with tags, fused parts or gaps K93Q): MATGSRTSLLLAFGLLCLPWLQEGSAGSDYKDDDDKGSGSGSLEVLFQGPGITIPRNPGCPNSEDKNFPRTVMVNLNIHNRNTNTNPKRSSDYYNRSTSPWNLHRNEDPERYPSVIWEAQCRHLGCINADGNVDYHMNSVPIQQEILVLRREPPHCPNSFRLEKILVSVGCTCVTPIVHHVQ
In short: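 IC50 came from a one-site competition fit of the acceptor/donor (665/620 nm) HTRF ratio. His-tagged IL-17RA, Eu-anti-FLAG and D2-anti-His were added after a 1 h rt compound preincubation with FLAG-tagged IL-17A dimer in PBS/0.01% Triton X-100, followed by 2 h at rt before reading.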

Row | SMILES | IC50 ([1]; Homo sapiens, Keratinocyte) [µM] | IC50 (IL-17A : IL-17RA binding) [µM] | IC50 [1] [µM]
1 | CC(C)c1ncsc1C(=O)N[C@H](c1nc2cc([C@@H](C)NC(=O)CCC(F)(F)F)ccc2[nH]1)C1CCC(F)(F)CC1 [Example 203, N—((S)-(4,4-Difluorocyclohexyl)(5-((R)-1-(4,4,4-trifluorobutanamido)ethyl)-1H-benzo[d]imidazol-2-yl)methyl)-4-isopropylthiazole-5-carboxamide] | > 0.1 | > 0.1 | –
2 | Cc1nonc1C(=O)N[C@H](c1nc2ccc([C@H](NC(=O)CC3CC(F)(F)C3)C3CC3)cc2[nH]1)[C@H]1CCCC(F)(F)C1 [Example 247, N—((S)-(6-((R)-Cyclopropyl(2-(3,3-difluorocyclobutyl)acetamido)methyl)-1H-benzo[d]imidazol-2-yl)((S)-3,3-difluorocyclohexyl)methyl)-4-methyl-1,2,5-oxadiazole-3-carboxamide] | < 0.05 | < 0.05 | –
3 | C[C@@H](NC(=O)CCC(F)(F)F)c1ccc2[nH]c([C@@H](NC(=O)c3cnn(CCOC(F)F)n3)C3CCC(F)(F)CC3)nc2c1 [Example 33, N—[(S)-(4,4-Difluorocyclohexyl)-[6-[(1R)-1-(4,4,4-trifluorobutanoylamino)ethyl]-1H-benzimidazol-2-yl]methyl]-2-[2-(difluoromethoxy)ethyl]triazole-4-carboxamide] | > 0.1 | > 0.1 | –
4 | Cc1nonc1C(=O)N[C@@H](CC(C)(C)C(F)(F)F)c1nc2cc([C@H](NC(=O)CCC(F)(F)F)C3CC3)ccc2[nH]1 (relative stereo) [Example 193, N—((S*)-1-(5-((R*)-Cyclopropyl(4,4,4-trifluorobutanamido)methyl)-1H-benzo[d]imidazol-2-yl)-4,4,4-trifluoro-3,3-dimethylbutyl)-4-methyl-1,2,5-oxadiazole-3-carboxamide] | 0.05 to 0.1 | < 0.05 | –
5 | Cc1c(C(=O)N[C@H](c2nc3cc([C@@H](C)NC(=O)CCC(F)(F)F)ccc3[nH]2)C2CCC(F)(F)CC2)cnn1CCC#N [Example 17, 1-(2-Cyanoethyl)-N—[(S)-(4,4-difluorocyclohexyl)-[6-[(1R)-1-(4,4,4-trifluorobutanoylamino)ethyl]-1H-benzimidazol-2-yl]methyl]-5-methyl-pyrazole-4-carboxamide] | > 0.1 | > 0.1 | –
6 | CC(CC(=O)N[C@@H](c1ccc2nc([C@H](CC(C)(C)C(F)(F)F)NC(=O)c3nonc3C3CC3)[nH]c2c1)C1CC1)C(F)(F)F (single isomer, unassigned) [Example 181, 4-Cyclopropyl-N—((S)-1-(6-((R)-cyclopropyl((R*)-4,4,4-trifluoro-3-methylbutanamido)methyl)-1H-benzo[d]imidazol-2-yl)-4,4,4-trifluoro-3,3-dimethylbutyl)-1,2,5-oxadiazole-3-carboxamide] | < 0.05 | < 0.05 | –
7 | C[C@@H](NC(=O)CCC(F)(F)F)c1ccc2nc([C@@H](NC(=O)c3cnnn3CC3CCC3)C3CCC(F)(F)CC3)[nH]c2c1 [Example 63, 1-(Cyclobutylmethyl)-N—((S)-(4,4-difluorocyclohexyl)(6-((R)-1-(4,4,4-trifluorobutanamido)ethyl)-1H-benzo[d]imidazol-2-yl)methyl)-1H-1,2,3-triazole-5-carboxamide] | 0.05 to 0.1 | 0.05 to 0.1 | –
8 | C[C@@H](NC(=O)CCC(F)(F)F)c1ccc2[nH]c([C@@H](NC(=O)c3cn(CC(F)(F)F)nn3)C3CCC(F)(F)CC3)nc2c1 [Example 24, N—[(S)-(4,4-Difluorocyclohexyl)-[6-[(1R)-1-(4,4,4-trifluorobutanoylamino)ethyl]-1H-benzimidazol-2-yl]methyl]-1-(2,2,2-trifluoroethyl)triazole-4-carboxamide] | > 0.1 | > 0.1 | –
9 | CC(C)n1nccc1C(=O)N[C@@H](C[C@H]1CCC(F)(F)C1)c1nc2ccc([C@H](NC(=O)CC3CC(F)(F)C3)C3CC3)cc2[nH]1 [Example 236, N—((S)-1-(6-((R)-Cyclopropyl(2-(3,3-difluorocyclobutyl)acetamido)methyl)-1H-benzo[d]imidazol-2-yl)-2-((R)-3,3-difluorocyclopentyl)ethyl)-1-isopropyl-1H-pyrazole-5-carboxamide] | > 0.1 | > 0.1 | –
10 | CCC(NC(=O)CCC(F)(F)F)c1ccc2[nH]c([C@@H](NC(=O)c3ccnn3C)C3CCC(F)(F)CC3)nc2c1 (single isomer, unassigned) [Example 53, N—((S)-(4,4-Difluorocyclohexyl)(5-((R*)-1-(4,4,4-trifluorobutanamido)propyl)-1H-benzo[d]imidazol-2-yl)methyl)-1-methyl-1H-pyrazole-5-carboxamide] | – | > 0.1 | 0.05 to 0.1
11 | CC(C)C(=O)N[C@H](c1nc2cc([C@@H](C)NC(=O)CCC(F)(F)F)ccc2[nH]1)C1CCC(F)(F)CC1 [Example 115, N—((R)-1-(2-((S)-(4,4-Difluorocyclohexyl)(isobutyramido)methyl)-1H-benzo[d]imidazol-5-yl)ethyl)-4,4,4-trifluorobutanamide] | > 0.1 | > 0.1 | –
12 | C[C@@H](NC(=O)CCC(F)(F)F)c1ccc2[nH]c([C@@H](NC(=O)c3cnnn3CC3CC(F)(F)C3(F)F)C3CCC(F)(F)CC3)nc2c1 (stereo partly drawn) [Example 82, N—((S)-(4,4-Difluorocyclohexyl)(5-((R)-1-(4,4,4-trifluorobutanamido)ethyl)-1H-benzo[d]imidazol-2-yl)methyl)-1-((2,2,3,3-tetrafluorocyclobutyl)methyl)-1H-1,2,3-triazole-5-carboxamide] | > 0.1 | > 0.1 | –
13 | Cn1nccc1C(=O)N[C@H](c1nc2cc(C(CC3CCC3)NC(=O)CCC(F)(F)F)ccc2[nH]1)C1CCC(F)(F)CC1 (single isomer, unassigned) [Example 46, N—((S)-(5-((S*)-2-Cyclobutyl-1-(4,4,4-trifluorobutanamido)ethyl)-1H-benzo[d]imidazol-2-yl)(4,4-difluorocyclohexyl)methyl)-1-methyl-1H-pyrazole-5-carboxamide] | > 0.1 | > 0.1 | –
14 | Cn1nccc1C(=O)N[C@H](c1nc2cc(C(NC(=O)CCC(F)(F)F)C3CCC3)ccc2[nH]1)C1CCC(F)(F)CC1 (single isomer, unassigned) [Example 43, N—((S)-(5-((R*)-Cyclobutyl(4,4,4-trifluorobutanamido)methyl)-1H-benzo[d]imidazol-2-yl)(4,4-difluorocyclohexyl)methyl)-1-methyl-1H-pyrazole-5-carboxamide] | – | > 0.1 | > 0.1
15 | C[C@@H](NC(=O)CCC(F)(F)F)c1ccc2[nH]c([C@@H](NC(=O)C3(C)CC3(F)F)C3CCC(F)(F)CC3)nc2c1 (relative stereo) [Example 109, N—((S)-(4,4-Difluorocyclohexyl)(5-((R*)-1-(4,4,4-trifluorobutanamido)ethyl)-1H-benzo[d]imidazol-2-yl)methyl)-2,2-difluoro-1-methylcyclopropane-1-carboxamide] | > 0.1 | > 0.1 | –
16 | C[C@@H](NC(=O)CCC(F)(F)F)c1ccc2[nH]c([C@@H](NC(=O)C3CC3)C3CCC(F)(F)CC3)nc2c1 [Example 94, N—((S)-(4,4-Difluorocyclohexyl)(5-((R)-1-(4,4,4-trifluorobutanamido)ethyl)-1H-benzo[d]imidazol-2-yl)methyl)cyclopropanecarboxamide] | > 0.1 | > 0.1 | –
17 | C[C@@H](NC(=O)CCC(F)(F)F)c1ccc2[nH]c(C(CC(C)(C)C(F)(F)F)NC(=O)c3cnn(CC4CC4)n3)nc2c1 (single isomer, unassigned) [Example 218, 2-(Cyclopropylmethyl)-N—((S*)-4,4,4-trifluoro-3,3-dimethyl-1-(5-((R)-1-(4,4,4-trifluorobutanamido)ethyl)-1H-benzo[d]imidazol-2-yl)butyl)-2H-1,2,3-triazole-4-carboxamide] | – | > 0.1 | > 0.1
18 | CCn1nc(C(=O)N[C@H](c2nc3cc([C@@H](C)NC(=O)CCC(F)(F)F)ccc3[nH]2)C2CCC(F)(F)CC2)cc1C(F)(F)F [Example 92, N—((S)-(4,4-Difluorocyclohexyl)(5-((R)-1-(4,4,4-trifluorobutanamido)ethyl)-1H-benzo[d]imidazol-2-yl)methyl)-1-ethyl-5-(trifluoromethyl)-1H-pyrazole-3-carboxamide] | > 0.1 | > 0.1 | –
19 | C[C@@H](NC(=O)CCC(F)(F)F)c1ccc2[nH]c([C@@H](NC(=O)c3cnnn3CCOC(F)(F)F)C3CCC(F)(F)CC3)nc2c1 [Example 36, N—[(S)-(4,4-Difluorocyclohexyl)-[6-[(1R)-1-(4,4,4-trifluorobutanoylamino)ethyl]-1H-benzimidazol-2-yl]methyl]-3-[2-(trifluoromethoxy)ethyl]triazole-4-carboxamide] | 0.05 to 0.1 | > 0.1 | –
20 | C[C@@H](NC(=O)CCC(F)(F)F)c1ccc2[nH]c([C@@H](NC(=O)c3cnn(CC(F)F)n3)C3CCC(F)(F)CC3)nc2c1 [Example 37, N—[(S)-(4,4-Difluorocyclohexyl)-[6-[(1R)-1-(4,4,4-trifluorobutanoylamino)ethyl]-1H-benzimidazol-2-yl]methyl]-2-(2,2-difluoroethyl)triazole-4-carboxamide] | > 0.1 | > 0.1 | –
21 | O=C(CC1CC(F)(F)C1)N[C@@H](c1ccc2[nH]c([C@@H](NC(=O)c3nonc3OCC(F)F)C3CCC(F)(F)CC3)nc2c1)C1CC1 [Example 144, N—((S)-(5-((R)-Cyclopropyl(2-(3,3-difluorocyclobutyl)acetamido)methyl)-1H-benzo[d]imidazol-2-yl)(4,4-difluorocyclohexyl)methyl)-4-(2,2-difluoroethoxy)-1,2,5-oxadiazole-3-carboxamide] | < 0.05 | > 0.1 | –
